Assay results as given in patent US20040235831A1, “Composition for caring for the hair or the eyelashes, containing a pyrazolecarboxamide compound, use thereof for stimulating the growth of the hair and the eyelashes and/or for reducing their loss” (SOCIETE L'OREAL, S.A., priority 2002, published 2004).

What was measured:
PGF synthase (PGFS) = target: T1, PGF synthase (PGFS) (Homo sapiens, UniProt P42330); assay: Test on PGF synthase (spectrophotometric, 9,10-phenanthrenequinone/β-NADPH, 340 nm); assay type: biochemical; conditions: concentration that inhibits 50% of the enzymatic activity of PGF synthase
T1 construct: made in house
T1 sequence (P42330 1-323): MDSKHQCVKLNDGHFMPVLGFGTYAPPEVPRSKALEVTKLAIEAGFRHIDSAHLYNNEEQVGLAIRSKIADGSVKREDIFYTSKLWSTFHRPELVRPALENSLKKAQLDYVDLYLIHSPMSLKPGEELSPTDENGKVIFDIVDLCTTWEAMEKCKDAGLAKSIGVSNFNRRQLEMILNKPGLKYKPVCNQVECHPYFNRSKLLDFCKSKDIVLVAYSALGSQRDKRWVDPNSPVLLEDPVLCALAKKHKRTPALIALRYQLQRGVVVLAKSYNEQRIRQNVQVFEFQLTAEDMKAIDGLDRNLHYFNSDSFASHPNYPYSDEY
Description: The enzyme PGFS is obtained as described in document FR-A-02/05067, at a concentration of 0.5 mg/ml, as a suspension in a suitable medium, and blocked at −80° C. For the purposes of the test, this suspension is thawed and stored in ice.
In parallel, a 100 mM, pH 6.5 Tris buffer containing 20 μM of 9,10-phenanthrenequinone* (P2896, Sigma-Aldrich, L'isle D'Abeau Chesne, BP 701, 38297, Saint Quentin Fallavier) and 100 μM of β-NADPH (N1630, Sigma-Aldrich, L'isle D'Abeau Chesne, BP 701, 38297, Saint Quentin Fallavier) is prepared in a brown flask (protected from light).
*A stock solution with a titre of 1 mM is prepared in absolute ethanol and brought to 40° C.; the flask is placed in an ultrasound cuvette to facilitate the dissolution of the product.
(§1) 0.950 ml of this buffer (brought to 37° C. beforehand) is introduced into the cuvette of a spectrophotometer (Perkin-Elmer, Lambda 2) thermostatically maintained at 37° C., the measuring wavelength of which is set at 340 nm. 0.05 ml of enzymatic suspension at 37° C. is introduced into the cuvette concomitantly with the recording (corresponding to a reduction in the optical density at 340 nm). The maximum reaction rate is recorded.
The test values (containing compound (I)) are compared with the control value (without compound (I)); the results indicated represent the percentage of inhibition of PGFS at a concentration of 50 μM.

15-PGDH = target: T2, 15-PGDH (Homo sapiens, UniProt P15428); assay: Test on 15-PGDH (spectrophotometric, PGE2/β-NAD, 340 nm); assay type: biochemical
T2 construct: made in house
T2 sequence (P15428 1-266): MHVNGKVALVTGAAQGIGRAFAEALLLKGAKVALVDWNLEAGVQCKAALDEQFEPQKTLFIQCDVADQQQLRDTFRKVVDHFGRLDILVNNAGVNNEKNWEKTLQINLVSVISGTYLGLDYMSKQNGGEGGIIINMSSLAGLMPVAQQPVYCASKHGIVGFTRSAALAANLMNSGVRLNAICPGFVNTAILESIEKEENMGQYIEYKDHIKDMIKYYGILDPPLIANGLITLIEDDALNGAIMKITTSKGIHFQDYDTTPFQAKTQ
Description: The enzyme 15-PGDH is obtained as described in patent application FR 02/05067 filed in the name of L'Oréal, as a suspension in a medium adjusted to a concentration of 0.3 mg/ml and then blocked at −80° C. For the purposes of the test, this suspension is thawed and stored in ice.
In parallel, a 100 mM, pH 7.4 Tris buffer containing 0.1 mM of dithiothreitol (D5545, Sigma-Aldrich, L'isle D'Abeau Chesne, BP 701, 38297, Saint Quentin Fallavier), 1.5 mM of β-NAD (N6522, Sigma-Aldrich, L'isle D'Abeau Chesne, BP 701, 38297, Saint Quentin Fallavier), and 50 μM of prostaglandin E2 (P4172, Sigma-Aldrich, L'isle D'Abeau Chesne, BP 701, 38297, Saint Quentin Fallavier) is prepared.
as §1, with “0.965” for “0.950”, “0.035” for “0.05”, “an increase” for “a reduction”

SMILES: COc1ccc(-n2ncc(C(=O)N3CCN(C)CC3)c2C)cc1 [Compound 2]
- IC50 (PGF synthase (PGFS)): > 75 µM
- Selectivity (15-PGDH; IC50fs/IC50dh ratio (PGF synthase vs 15-PGDH)): >7.5
- IC50 (15-PGDH; concentration that inhibits 50% of the enzymatic activity of 15-PGDH): 10 µM
